Here are results for nine molecules from patent publication US20180371044A1, “PEPTIDOMIMETIC MACROCYCLES” (Aileron Therapeutics, Inc., priority 2015, published 2018).

Where a SMILES comes first, the peptide text is derived from it. [ ]: non-standard residue; d: D form. NMeY = CN[C@@H](Cc1ccc(O)cc1)C(=O)O; Cit = NC(=O)NCCC[C@H](N)C(=O)O; Nle = CCCC[C@H](N)C(=O)O; Abu = CC[C@H](N)C(=O)O; Aib = CC(C)(N)C(=O)O

The target of this test is T1, human GHRH receptor (hGHRHR) (Homo sapiens, UniProt Q02643).
T1 construct: expressed in transfected cells; host or cells: Human 293 cells
T1 sequence (Q02643 23-423): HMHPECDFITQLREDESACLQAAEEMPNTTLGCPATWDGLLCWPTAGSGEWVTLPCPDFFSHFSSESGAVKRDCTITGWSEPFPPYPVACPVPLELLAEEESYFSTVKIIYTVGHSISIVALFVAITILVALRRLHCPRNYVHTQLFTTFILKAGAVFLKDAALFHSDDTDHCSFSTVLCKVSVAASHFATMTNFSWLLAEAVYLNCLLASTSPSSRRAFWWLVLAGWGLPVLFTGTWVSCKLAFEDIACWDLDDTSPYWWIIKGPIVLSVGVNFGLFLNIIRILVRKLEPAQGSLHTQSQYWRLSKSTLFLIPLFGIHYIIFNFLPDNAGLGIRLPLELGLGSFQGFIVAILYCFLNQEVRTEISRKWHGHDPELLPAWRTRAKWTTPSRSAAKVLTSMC
Nature of the test: GHRHR agonism measured by cAMP (HTRF) in human 293 cells expressing hGHRHR.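 Also: receptor expressed transiently or stably, cells stimulated in serum-free medium, EC50 from a non-linear dose-response fit, maximal response defined by reference GHRH stimulation.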 The test is classed as cell-based. The note with it: 30 min at RT.
`CCCC[C@H](NC(=O)[C@@H](NC(=O)[C@H](CC(=O)O)NC(=O)[C@H](CCC(N)=O)NC(=O)[C@H](CC(C)C)NC(=O)[C@H](C)NC(=O)[C@H](CCCCN)NC(=O)[C@H](CCCNC(=N)N)NC(=O)[C@H](C)NC(=O)[C@H](CO)NC(=O)[C@H](CC(C)C)NC(=O)[C@H](CCC(N)=O)NC(=O)[C@H](C)NC(=O)[C@H](CC(C)C)NC(=O)[C@@H](NC(=O)[C@H](CCCCN)NC(=O)[C@H](CCCNC(=N)N)NC(=O)[C@H](Cc1ccc(O)cc1)NC(=O)[C@H](CO)NC(=O)C(C)(C)NC(=O)[C@@H](NC(=O)[C@H](Cc1ccccc1)NC(=O)[C@@H](NC(=O)[C@H](C)NC(=O)[C@H](CC(=O)O)NC(=O)[C@H](C)NC(=O)[C@H](Cc1ccc(O)cc1)NC)[C@@H](C)CC)[C@@H](C)O)C(C)C)[C@@H](C)CC)C(=O)N[C@@H](CO)C(=O)N[C@@H](CCCNC(=N)N)C(N)=O` [SP-41] (H-[NMeY]ADAIFT[Aib]SYRKVLAQLSARKALQDI[Nle]SR-NH2) yielded an EC50 not above 1 nM.

`CCCC[C@H](NC(=O)[C@@H](NC(=O)[C@H](CC(=O)O)NC(=O)[C@H](CCC(N)=O)NC(=O)[C@H](CC(C)C)NC(=O)[C@H](C)NC(=O)[C@H](CCCCN)NC(=O)[C@H](CCCNC(=N)N)NC(=O)[C@H](C)NC(=O)[C@H](CO)NC(=O)[C@H](CC(C)C)NC(=O)[C@H](CCC(N)=O)NC(=O)[C@H](C)NC(=O)[C@H](CC(C)C)NC(=O)[C@@H](NC(=O)[C@H](CCCCN)NC(=O)[C@H](CCCNC(=N)N)NC(=O)[C@H](Cc1ccc(O)cc1)NC(=O)[C@H](CO)NC(=O)[C@@H](NC(=O)[C@@H](NC(=O)[C@H](Cc1ccccc1)NC(=O)[C@@H](NC(=O)[C@H](C)NC(=O)[C@H](CC(=O)O)NC(=O)[C@H](C)NC(=O)[C@H](Cc1ccc(O)cc1)NC)[C@@H](C)CC)[C@@H](C)O)[C@@H](C)O)C(C)C)[C@@H](C)CC)C(=O)N[C@@H](CO)C(=O)N[C@@H](CCCNC(=N)N)C(N)=O` [SP-42] (H-[NMeY]ADAIFTTSYRKVLAQLSARKALQDI[Nle]SR-NH2) came in with an EC50 of 1 to 10 nM.

As to `CCCC[C@H](NC(=O)[C@@H](NC(=O)[C@H](CC(=O)O)NC(=O)[C@H](CCC(N)=O)NC(=O)[C@H](CC(C)C)NC(=O)[C@H](C)NC(=O)[C@H](CCCCN)NC(=O)[C@H](CCCNC(=N)N)NC(=O)[C@H](C)NC(=O)[C@H](CO)NC(=O)[C@H](CC(C)C)NC(=O)[C@H](CCC(N)=O)NC(=O)[C@H](C)NC(=O)[C@H](CC(C)C)NC(=O)[C@@H](NC(=O)[C@H](CCCCN)NC(=O)[C@H](CCCNC(=N)N)NC(=O)[C@H](Cc1ccc(O)cc1)NC(=O)[C@H](CO)NC(=O)[C@H](CCC(N)=O)NC(=O)[C@@H](NC(=O)[C@H](Cc1ccccc1)NC(=O)[C@@H](NC(=O)[C@H](C)NC(=O)[C@H](CC(=O)O)NC(=O)[C@H](C)NC(=O)[C@H](Cc1ccc(O)cc1)NC)[C@@H](C)CC)[C@@H](C)O)C(C)C)[C@@H](C)CC)C(=O)N[C@@H](CO)C(=O)N[C@@H](CCCNC(=N)N)C(N)=O` [SP-43] (H-[NMeY]ADAIFTQSYRKVLAQLSARKALQDI[Nle]SR-NH2), the EC50 was not above 1 nM.

On to `CCCC[C@H](NC(=O)[C@@H](NC(=O)[C@H](CC(=O)O)NC(=O)[C@H](CCC(N)=O)NC(=O)[C@H](CC(C)C)NC(=O)[C@H](C)NC(=O)[C@H](CCCCN)NC(=O)[C@H](CCCNC(=N)N)NC(=O)[C@H](C)NC(=O)[C@H](CO)NC(=O)[C@H](CC(C)C)NC(=O)[C@H](CCC(N)=O)NC(=O)[C@H](CC)NC(=O)[C@H](CC(C)C)NC(=O)[C@@H](NC(=O)[C@H](CCCCN)NC(=O)[C@H](CCCNC(=N)N)NC(=O)[C@H](Cc1ccc(O)cc1)NC(=O)[C@H](CO)NC(=O)[C@H](C)NC(=O)[C@@H](NC(=O)[C@H](Cc1ccccc1)NC(=O)[C@@H](NC(=O)[C@H](C)NC(=O)[C@H](CC(=O)O)NC(=O)[C@H](C)NC(=O)[C@H](Cc1ccc(O)cc1)NC)[C@@H](C)CC)[C@@H](C)O)C(C)C)[C@@H](C)CC)C(=O)N[C@@H](CO)C(=O)N[C@@H](CCCNC(=N)N)C(N)=O` [SP-44] (H-[NMeY]ADAIFTASYRKVL[Abu]QLSARKALQDI[Nle]SR-NH2), for which the EC50 was in the range of 1 to 10 nM.

`CCCC[C@H](NC(=O)[C@@H](NC(=O)[C@H](CC(=O)O)NC(=O)[C@H](CCC(N)=O)NC(=O)[C@H](CC(C)C)NC(=O)[C@H](C)NC(=O)[C@H](CCCCN)NC(=O)[C@H](CCCNC(=N)N)NC(=O)[C@H](C)NC(=O)[C@H](CO)NC(=O)[C@H](CC(C)C)NC(=O)[C@H](CCC(N)=O)NC(=O)[C@H](C)NC(=O)[C@H](CC(C)C)NC(=O)[C@@H](NC(=O)[C@H](CCCCN)NC(=O)[C@H](CCCNC(=N)N)NC(=O)[C@H](Cc1ccc(O)cc1)NC(=O)[C@H](CO)NC(=O)[C@H](C)NC(=O)[C@@H](NC(=O)[C@H](Cc1ccccc1)NC(=O)[C@@H](NC(=O)[C@H](C)NC(=O)[C@H](CC(=O)O)NC(=O)[C@H](C)NC(=O)[C@H](Cc1ccc(O)cc1)NC)[C@@H](C)CC)[C@@H](C)O)C(C)C)[C@@H](C)CC)C(=O)N[C@@H](CC(=O)O)C(=O)N[C@@H](CCCNC(=N)N)C(N)=O` [SP-45] (H-[NMeY]ADAIFTASYRKVLAQLSARKALQDI[Nle]DR-NH2) displayed an EC50 not above 1 nM.

For `CCCC[C@H](NC(=O)[C@@H](NC(=O)[C@H](CC(=O)O)NC(=O)[C@H](CCC(N)=O)NC(=O)[C@H](CC(C)C)NC(=O)[C@H](C)NC(=O)[C@H](CCCCN)NC(=O)[C@H](CCCNC(=N)N)NC(=O)[C@H](C)NC(=O)[C@H](CO)NC(=O)[C@H](CC(C)C)NC(=O)[C@H](CCC(N)=O)NC(=O)[C@H](C)NC(=O)[C@H](CC(C)C)NC(=O)[C@@H](NC(=O)[C@H](CCCCN)NC(=O)[C@H](CCCNC(=N)N)NC(=O)[C@H](Cc1ccc(O)cc1)NC(=O)[C@H](CO)NC(=O)[C@H](C)NC(=O)[C@@H](NC(=O)[C@H](Cc1ccccc1)NC(=O)[C@@H](NC(=O)[C@H](C)NC(=O)[C@H](CC(=O)O)NC(=O)[C@@H](C)NC(=O)[C@@H](N)Cc1ccc(O)cc1)[C@@H](C)CC)[C@@H](C)O)C(C)C)[C@@H](C)CC)C(=O)N[C@@H](CO)C(=O)N[C@@H](CCCNC(=N)N)C(N)=O` [SP-46] (H-Y[dA]DAIFTASYRKVLAQLSARKALQDI[Nle]SR-NH2), the half-maximal effective concentration (EC50) was not above 1 nM.

`CCCC[C@H](NC(=O)[C@@H](NC(=O)[C@H](CC(=O)O)NC(=O)[C@H](CCC(N)=O)NC(=O)[C@H](CC(C)C)NC(=O)[C@H](C)NC(=O)[C@H](CCCCN)NC(=O)[C@H](CCCNC(=N)N)NC(=O)[C@H](C)NC(=O)[C@H](CO)NC(=O)[C@H](CC(C)C)NC(=O)[C@H](CCC(N)=O)NC(=O)[C@H](C)NC(=O)[C@H](CC(C)C)NC(=O)[C@@H](NC(=O)[C@H](CCCCN)NC(=O)[C@H](CCCNC(N)=O)NC(=O)[C@H](Cc1ccc(O)cc1)NC(=O)[C@H](CO)NC(=O)[C@H](C)NC(=O)[C@@H](NC(=O)[C@H](Cc1ccccc1)NC(=O)[C@@H](NC(=O)[C@H](C)NC(=O)[C@H](CC(=O)O)NC(=O)[C@H](C)NC(=O)[C@H](Cc1ccc(O)cc1)NC)[C@@H](C)CC)[C@@H](C)O)C(C)C)[C@@H](C)CC)C(=O)N[C@@H](CO)C(=O)N[C@@H](CCCNC(=N)N)C(N)=O` [SP-47] (H-[NMeY]ADAIFTASY[Cit]KVLAQLSARKALQDI[Nle]SR-NH2) registered an EC50 not above 1 nM.

The molecule `CCCC[C@H](NC(=O)[C@@H](NC(=O)[C@H](CC(=O)O)NC(=O)[C@H](CCC(N)=O)NC(=O)[C@H](CC(C)C)NC(=O)[C@H](C)NC(=O)[C@H](CCCCN)NC(=O)[C@H](CCCNC(N)=O)NC(=O)[C@H](C)NC(=O)[C@H](CO)NC(=O)[C@H](CC(C)C)NC(=O)[C@H](CCC(N)=O)NC(=O)[C@H](C)NC(=O)[C@H](CC(C)C)NC(=O)[C@@H](NC(=O)[C@H](CCCCN)NC(=O)[C@H](CCCNC(=N)N)NC(=O)[C@H](Cc1ccc(O)cc1)NC(=O)[C@H](CO)NC(=O)[C@H](C)NC(=O)[C@@H](NC(=O)[C@H](Cc1ccccc1)NC(=O)[C@@H](NC(=O)[C@H](C)NC(=O)[C@H](CC(=O)O)NC(=O)[C@H](C)NC(=O)[C@H](Cc1ccc(O)cc1)NC)[C@@H](C)CC)[C@@H](C)O)C(C)C)[C@@H](C)CC)C(=O)N[C@@H](CO)C(=O)N[C@@H](CCCNC(=N)N)C(N)=O` [SP-48] (H-[NMeY]ADAIFTASYRKVLAQLSA[Cit]KALQDI[Nle]SR-NH2) showed an EC50 of 1 to 10 nM.

For `CCCC[C@H](NC(=O)[C@@H](NC(=O)[C@H](CC(=O)O)NC(=O)[C@H](CCC(N)=O)NC(=O)[C@H](CC(C)C)NC(=O)[C@H](C)NC(=O)[C@H](CCCCN)NC(=O)[C@H](CCCNC(=N)N)NC(=O)[C@H](C)NC(=O)[C@H](CO)NC(=O)[C@H](CC(C)C)NC(=O)[C@H](CCC(N)=O)NC(=O)[C@H](C)NC(=O)[C@H](CC(C)C)NC(=O)[C@@H](NC(=O)[C@H](CCCCN)NC(=O)[C@H](CCCNC(=N)N)NC(=O)[C@H](Cc1ccc(O)cc1)NC(=O)[C@H](CO)NC(=O)[C@H](C)NC(=O)[C@@H](NC(=O)[C@H](Cc1ccccc1)NC(=O)[C@@H](NC(=O)[C@H](C)NC(=O)[C@H](CC(=O)O)NC(=O)[C@H](C)NC(=O)[C@H](Cc1ccc(O)cc1)NC)[C@@H](C)CC)[C@@H](C)O)C(C)C)[C@@H](C)CC)C(=O)N[C@@H](CO)C(=O)N[C@@H](CCCNC(N)=O)C(N)=O` [SP-49] (H-[NMeY]ADAIFTASYRKVLAQLSARKALQDI[Nle]S[Cit]-NH2), the concentration giving a half-maximal response (EC50) is not above 1 nM.
